The subject of one experiment is Jurkat (JM) cells. Kind of experiment: CPI/PI staining as marker of cell viability in proliferating Jurkat cells. The following applies: 98% viable, 10 μL CPI (100 μg/mL DMSO) in 90 μL cells. The experiment is classed as cell-based. The procedure:
Jurkat (JM) cells were grown at 37° C. in a humidified air atmosphere with 5% CO2 in RPMI (Invitrogen, #61870) supplemented with 10% heat-inactivated fetal bovine serum (Invitrogen, #10108-165). 90 μL proliferating Jurkat cells (cell density 1.1×10^6, 98% viable determined using the NC-100 NucleoCounter system following the manufacturer's (ChemoMetec) protocol) were added 10 μL CPI (7-diethylamino-3-((4′-(iodoacetyl)amino)phenyl)-4-methylcoumarin, Sigma 78264 CAS no. 76877-34-4) dissolved in DMSO (100 μg CPI pr. mL DMSO) and mixed by pipetting. Cells were loaded into a NucleoCassette, containing the DNA stain propidium iodide (PI). The cells were investigated using an Olympus IX50 fluorescent microscope, and images were captured using a Lumenera CCD camera and in-house developed software. PI and CPI fluorescence were detected using, respectively, U-MWG2 (green long pass: 510-550 nm) and U-MNUA2 (UV band pass, 330-385 nm) filter cubes (Olympus).

The next experiment relates to HEK293 cells. The experiment is described as follows: NAM/PI staining to determine viability of outgrown HEK293 cells (fluorescence microscopy). The following applies: HEK293 cells treated with 0.25% Triton X-100, then 10 μg/mL NAM; PI from NucleoCassette. It counts as cell-based, human. The procedure:
HEK293 cells were grown at 37° C. in a humidified air atmosphere with 5% CO2 in DMEM (Invitrogen, #31966) supplemented with 10% heat-inactivated fetal bovine serum (Invitrogen, #10108-165). Cells were harvested with 0.5 mL of trypsin (Invitrogen, #25300) and neutralized with 5 mL medium (DMEM+10% FCS) two days after they had reached full confluency. These outgrown HEK293 cells (cell density 1.6×10^6, 78% viable determined using the NC-100 NucleoCounter system following the manufacturer's (ChemoMetec) protocol) were stained with 10 μg/mL NAM (Sigma, #01665). Another cell sample were treated with 0.25% Triton X-100 (Sigma, #T9284) and hereafter added 10 μg/mL NAM. After staining, each cell sample was loaded into a NucleoCassette, containing the DNA stain propidium iodide (PI). The cells were investigated using an Olympus IX50 fluorescent microscope, and images were captured using a Lumenera CCD camera and in-house developed software. PI and NAM fluorescence were detected using, respectively, U-MWG2 (green long pass: 510-550 nm) and U-MNUA2 (UV band pass, 330-385 nm) filter cubes (Olympus).

Take `CCN(CC)c1ccc2c(C)c(-c3ccc(NC(=O)CI)cc3)c(=O)oc2c1` [CPI, 7-diethylamino-3-((4′-(iodoacetyl)amino)phenyl)-4-methylcoumarin]: the “staining of cells by CPI versus PI” value in the experiment with Jurkat (JM) cells is “nearly all cells were stained by CPI”.

On to `CC[N+](C)(CC)CCC[n+]1c(-c2ccccc2)c2cc(N)ccc2c2ccc(N)cc21.[I-].[I-]` [PI, propidium iodide], for which the “staining of Triton X-100 treated cells” value in the experiment on HEK293 cells is listed as “PI positive”.

These data come from US8697390B2, “Method and kit for examination of cells using N-(9-acridinyl) maleimide (NAM) or using 7-diethylamino-3-((4′-iodacetyl)amino)phenyl)-4-methylkcoumarin (CPI)” (ChemoMetec A/S, priority 2008, dated 2014).
